Reference: PubChem BioAssay (NCI)
Several values for one entry are separate records, joined by “and”; a condition that tells them apart may be missing. Identical values can stand only once.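 Each compound was tested at five concentrations against cells in 96-well plates for 48 hours. GI50 = concentration required for 50% inhibition of growth. TGI: concentration producing complete growth inhibition.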

Assays:
Assay in all cases: NCI anticancer screen, dose series, 48 h
BT-549 breast = tested on: BT-549 breast
CAKI-1 renal = tested on: CAKI-1 renal
HOP-62 NSCLC = tested on: HOP-62 NSCLC
MDA-MB-231 breast = tested on: MDA-MB-231 breast
OVCAR-5 ovarian = tested on: OVCAR-5 ovarian
PC-3 prostate = tested on: PC-3 prostate
SW-620 colon = tested on: SW-620 colon
TK-10 renal = tested on: TK-10 renal
UACC-62 melanoma = tested on: UACC-62 melanoma
HCT-15 colon = tested on: HCT-15 colon

Row | Compound | GI50 (BT-549 breast) | TGI (BT-549 breast) | GI50 (CAKI-1 renal) | TGI (CAKI-1 renal) | GI50 (HOP-62 NSCLC) | TGI (HOP-62 NSCLC) | GI50 (MDA-MB-231 breast) | TGI (MDA-MB-231 breast) | GI50 (OVCAR-5 ovarian) | TGI (OVCAR-5 ovarian) | GI50 (PC-3 prostate) | TGI (PC-3 prostate) | GI50 (SW-620 colon) | TGI (SW-620 colon) | GI50 (TK-10 renal) | TGI (TK-10 renal) | GI50 (UACC-62 melanoma) | TGI (UACC-62 melanoma) | TGI (HCT-15 colon) | GI50 (HCT-15 colon)
1 | O=c1ccc2nc(-c3ccccn3)nn(-c3ccccc3)c-2c1 | 2.86 µM | 10.1 µM | 1.49 µM | 2.84 µM | 3.76 µM | 44.3 µM | 1.92 µM | 3.68 µM | 4.99 µM | 18.1 µM | 1.93 µM | 4.18 µM | 1.77 µM | 3.66 µM | 1.66 µM | 3.12 µM | 1.95 µM | 4.3 µM |  | 
2 | O=C(CSc1nc2ccccc2c(=O)n1-c1ccccc1)N=Nc1c(O)[nH]c2ccc(F)cc12 |  |  |  | 3.46 µM |  | 6.77 µM |  | 4.79 µM |  | 4.73 µM |  | 3.77 µM |  | 15.2 µM |  |  |  | 4.82 µM |  | 
3 | S=c1[nH]c2ccc(I)cc2c(=S)n1Cc1ccccc1 |  | 27 µM |  | > 100 µM |  | 22.8 µM |  | 20.4 µM |  | 43.9 µM |  | 15.5 µM |  | 14.7 µM |  | 30.8 µM |  |  | 23.3 µM | 
4 | CCN1CCC(O)(/C=C/c2ccc(OC)cc2)C(C(=O)/C=C/c2ccc(OC)cc2)C1 (configuration not stated) |  | 28.9 µM |  |  |  | 33.4 µM |  | 17.5 µM |  | 28.8 µM |  | 23.5 µM |  | 17.9 µM |  | 26.7 µM |  | 26.1 µM |  | 
5 | CCOC(=O)N1CCC(=C2c3ccc(Cl)cc3CCc3cccnc32)CC1 |  |  |  |  |  | 36.3 µM |  | 42.5 µM |  | 37.9 µM |  | 25.7 µM |  | 34.6 µM |  | 29.3 µM |  | 18.9 µM | 23.4 µM | 
6 | CN(Cc1cc(Cl)c(Cl)cc1NC(=O)CN)[C@H]1CCCC[C@@H]1N1CCCC1 |  |  |  | > 100 µM |  | > 100 µM |  | > 100 µM |  | > 100 µM |  | > 100 µM |  | > 100 µM |  | > 100 µM |  | 31.5 µM |  | 
7 | Cc1ccc(-n2cc([Si](C)(C)C)nn2)s1 |  | > 100 µM |  | > 100 µM |  |  |  | > 100 µM |  | > 100 µM |  | > 100 µM |  | > 100 µM |  | > 100 µM |  | > 100 µM | > 100 µM | 
8 | CN(C)CCCNCc1cccc2ccccc12 |  | > 100 µM |  |  |  | > 100 µM |  | > 100 µM |  | > 100 µM |  | > 100 µM |  | > 100 µM |  | > 100 µM |  | > 100 µM | > 100 µM | 
9 | CC1=NN(c2nc(N)nc(CF)n2)C(C)(C)C1 |  | > 100 µM |  | > 100 µM |  | > 100 µM |  | > 100 µM |  |  |  | > 100 µM |  | > 100 µM |  | > 100 µM |  | > 100 µM | > 100 µM | 
10 | Cc1nc2ccccc2c(/C=C/c2ccc(Cl)cc2)c1C(=O)/C=C/c1ccccc1 |  |  |  |  |  |  | 1.87 µM | 4.37 µM | 1.83 µM | 3.39 µM |  |  |  |  |  |  |  |  | 4.03 µM | 1.36 µM
11 | Cc1ccc([N+](=O)[O-])c2c(NCC(O)CO)ccnc12 (configuration not stated) |  | > 100 µM |  | > 100 µM |  | > 100 µM |  |  |  | > 100 µM |  | > 100 µM |  | > 100 µM |  | > 100 µM |  | > 100 µM | > 100 µM | 
12 | C/C=C(/C)C(=O)O[C@H]1[C@H](O)CC(c2ccc3c(c2O)C(O)=C2C(=O)C4(OC)C(O)=C(C(N)=O)C(=O)[C@H](CC(=O)c5ccccc5O)C4CC2[C@@]3(C)OC)O[C@@H]1C (some centres not stated) |  | 0.892 µM |  |  |  |  |  | 1.35 µM |  | 2.02 µM and 0.916 µM |  | 0.187 µM |  | 1.13 µM |  | 6.19 µM and 4.65 µM |  | 0.236 µM | 18.1 µM | 
13 | CCCC(=O)[O-].N.N.N.N.N.[Co+3].[O-][Cl+3]([O-])([O-])[O-] |  |  |  |  |  | > 100 µM |  |  |  | > 100 µM |  |  |  | > 100 µM |  | > 100 µM |  | > 100 µM | > 100 µM | 
14 | CCOC(=O)c1c(-c2cccc3ccccc23)c(C#N)c(=S)n(C2OC(COC(C)=O)C(OC(C)=O)C(OC(C)=O)C2OC(C)=O)c1C (configuration not stated) |  |  |  |  |  | > 100 µM |  | > 100 µM |  | > 100 µM |  | > 100 µM |  |  |  | > 100 µM |  | > 100 µM | > 100 µM | 
15 | CC(=O)Nc1ccccc1NC1CC(C)N(c2ccccc2)N1C(C)=O (configuration not stated) |  |  |  | > 10 µM |  | > 10 µM |  | > 10 µM |  |  |  | > 10 µM |  | > 10 µM |  | > 10 µM |  | > 10 µM | > 10 µM | 
16 | CCOC(=O)C(NC(=O)OC(C)(C)C)C(=O)OCC |  | > 100 µM |  | > 100 µM |  | > 100 µM |  |  |  | > 100 µM |  | > 100 µM |  | > 100 µM |  | > 100 µM |  | > 100 µM | > 100 µM | 
17 | NCCCNCCCCN1CC1 |  | > 20.5 µM |  | 0.407 µM |  | 14.1 µM |  |  |  | > 33.8 µM |  | > 34.9 µM |  |  |  | > 23.2 µM |  | 68.8 µM | > 33.2 µM | 
18 | COC(=O)C(NC(=O)c1ccccc1)C(c1ccc(Cl)cc1)P(=O)(OC)OC (configuration not stated) |  |  |  | > 100 µM |  | > 100 µM |  |  |  | > 100 µM |  |  |  | > 100 µM |  | > 100 µM |  | > 100 µM | > 100 µM | 
19 | Oc1ccc(Cl)cc1C1=NC(/N=C\c2ccccc2)=NC(c2ccccc2)C1 (configuration not stated) |  | > 100 µM |  | 28.1 µM |  | > 100 µM |  | > 100 µM |  | > 100 µM |  | > 100 µM |  | > 100 µM |  | > 100 µM |  | > 100 µM |  | 
20 | COC(=O)C1=C(C(=O)OC)SC2(S1)C(C(=O)OC)=C(C(=O)OC)Sc1c2ssc1=NC(C)(C)C |  | 7.47 µM |  | 4.01 µM |  | 15.5 µM |  | 3.44 µM |  | 3.68 µM |  | 2.75 µM |  |  |  | 3.27 µM |  | 2.97 µM | 2.19 µM | 
21 | O=C1CSc2cc([N+](=O)[O-])ccc2N1 |  |  |  | > 100 µM |  | > 100 µM |  |  |  | > 100 µM |  |  |  | > 100 µM |  | > 100 µM |  | > 100 µM | > 100 µM | 
22 | CCC(NC1=NCCO1)c1cccs1 (configuration not stated) |  | 37.7 µM |  | 30.9 µM |  |  |  | 44.6 µM |  | 30.7 µM |  | 33.9 µM |  | > 100 µM |  | 29.9 µM |  | 30.8 µM | 30.2 µM | 
23 | O=C(O)CCC(NC(=O)c1ccc(Nc2nc3cc(C(F)(F)F)ccc3nc2C(=O)O)cc1)C(=O)O (configuration not stated) |  |  |  |  |  | > 100 µM |  | > 100 µM |  | > 100 µM |  | > 100 µM |  | > 100 µM |  | > 100 µM |  | > 100 µM | > 100 µM | 
24 | COc1ccc(N2C(=O)C3c4[nH]c5ccccc5c4C4CCCCC4C3C2=O)cc1 (configuration not stated) |  |  |  | > 100 µM |  | 35.8 µM |  |  |  | > 100 µM |  |  |  | > 100 µM |  | 58.8 µM |  | 33.3 µM | > 100 µM | 
